Laboratory results from patent US20090311217A1, “3-SUBSTITUTED-1H-INDOLE COMPOUNDS, THEIR USE AS MTOR KINASE AND PI3 KINASE INHIBITORS, AND THEIR SYNTHESES” (priority 2008, published 2009).
pIC50: −log10 of the molar value.

Experiments:
PI3K-alpha = PI3K-alpha (Homo sapiens, UniProt P42336); test: PI3K-alpha fluorescence polarization assay; assay type: biochemical; conditions: read-out: PI3Kα Avg. IC50
PI3K-gamma = PI3K-gamma (Homo sapiens, UniProt P48736); test: PI3K-gamma fluorescence polarization assay; assay type: biochemical; conditions: PI3Kγ Avg. IC50
Experimental: PI3K-Alpha, PI3K-Beta, PI3K-Gamma, and PI3K-delta Fluorescence Polarization Assay Protocols
PI3-Kinase reactions were performed in 5 mM HEPES, pH 7, 2.5 mM MgCl2, and 25 μM ATP, with diC8-PI(4,5)P2 (Echelon, Salt Lake City Utah) as substrate. Nunc 384-well black polypropylene fluorescent plates were used for PI3K assays. Reactions were quenched by the addition of EDTA to a final concentration of 10 mM. Final reaction volumes were 10 μl. For evaluation of PI3K inhibitors, 5 ng of enzyme (PI3K-alpha, beta, gamma, or delta) and 2.5 μM of substrate was used per […] reaction volume, and inhibitor concentrations ranged from 100 μM to 20 μM; the final level of DMSO in reactions never exceeded 2%. Reactions were allowed to proceed for one hour at 25° C. After 1 hour, GST-tagged GRP1 (general receptor for phosphoinositides) PH domain fusion protein was added to a final concentration of 100 nM, and BODIPY-TMRI(1,3,4,5)P4 (Echelon) was also added to a final concentration of 5 nM. Final sample volumes were 25 μl with a final DMSO concentration of 0.8%. Assay Plates were read on Perkin-Elmer Envision plate readers with appropriate filters for Tamra [BODIPY-TMRI(1,3,4,5)P4]. Data obtained were used to calculate enzymatic activity and enzyme inhibition by inhibitor compounds.

Chain of PI3K-alpha (P42336 whole entry, species assumed): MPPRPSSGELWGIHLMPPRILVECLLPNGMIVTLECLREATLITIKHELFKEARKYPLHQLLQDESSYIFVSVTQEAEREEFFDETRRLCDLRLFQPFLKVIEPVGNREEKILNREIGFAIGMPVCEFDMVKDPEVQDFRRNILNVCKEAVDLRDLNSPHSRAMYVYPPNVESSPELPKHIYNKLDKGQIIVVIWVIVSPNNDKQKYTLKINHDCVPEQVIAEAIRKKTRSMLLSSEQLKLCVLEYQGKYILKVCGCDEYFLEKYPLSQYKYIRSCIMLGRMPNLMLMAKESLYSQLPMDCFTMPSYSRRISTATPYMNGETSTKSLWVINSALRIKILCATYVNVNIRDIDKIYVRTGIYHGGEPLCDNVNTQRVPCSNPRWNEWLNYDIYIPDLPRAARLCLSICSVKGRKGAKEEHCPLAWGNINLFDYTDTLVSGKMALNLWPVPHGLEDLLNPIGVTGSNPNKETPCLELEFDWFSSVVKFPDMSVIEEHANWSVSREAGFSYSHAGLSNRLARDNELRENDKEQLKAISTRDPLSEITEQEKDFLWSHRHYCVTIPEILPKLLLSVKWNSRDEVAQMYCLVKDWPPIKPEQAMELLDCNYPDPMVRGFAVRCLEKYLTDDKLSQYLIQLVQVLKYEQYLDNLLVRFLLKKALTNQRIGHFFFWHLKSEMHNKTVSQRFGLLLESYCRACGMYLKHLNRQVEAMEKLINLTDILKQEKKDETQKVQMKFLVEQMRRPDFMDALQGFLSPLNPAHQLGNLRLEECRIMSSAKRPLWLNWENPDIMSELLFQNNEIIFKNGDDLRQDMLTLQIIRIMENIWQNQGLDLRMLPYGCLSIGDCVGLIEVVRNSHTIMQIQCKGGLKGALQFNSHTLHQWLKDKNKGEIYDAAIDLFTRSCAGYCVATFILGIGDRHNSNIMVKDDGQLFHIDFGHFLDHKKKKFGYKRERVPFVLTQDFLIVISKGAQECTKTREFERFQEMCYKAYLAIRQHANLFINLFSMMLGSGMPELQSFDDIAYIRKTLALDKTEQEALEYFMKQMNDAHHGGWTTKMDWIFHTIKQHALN
Chain of PI3K-alpha (P27986 whole entry partner, species assumed): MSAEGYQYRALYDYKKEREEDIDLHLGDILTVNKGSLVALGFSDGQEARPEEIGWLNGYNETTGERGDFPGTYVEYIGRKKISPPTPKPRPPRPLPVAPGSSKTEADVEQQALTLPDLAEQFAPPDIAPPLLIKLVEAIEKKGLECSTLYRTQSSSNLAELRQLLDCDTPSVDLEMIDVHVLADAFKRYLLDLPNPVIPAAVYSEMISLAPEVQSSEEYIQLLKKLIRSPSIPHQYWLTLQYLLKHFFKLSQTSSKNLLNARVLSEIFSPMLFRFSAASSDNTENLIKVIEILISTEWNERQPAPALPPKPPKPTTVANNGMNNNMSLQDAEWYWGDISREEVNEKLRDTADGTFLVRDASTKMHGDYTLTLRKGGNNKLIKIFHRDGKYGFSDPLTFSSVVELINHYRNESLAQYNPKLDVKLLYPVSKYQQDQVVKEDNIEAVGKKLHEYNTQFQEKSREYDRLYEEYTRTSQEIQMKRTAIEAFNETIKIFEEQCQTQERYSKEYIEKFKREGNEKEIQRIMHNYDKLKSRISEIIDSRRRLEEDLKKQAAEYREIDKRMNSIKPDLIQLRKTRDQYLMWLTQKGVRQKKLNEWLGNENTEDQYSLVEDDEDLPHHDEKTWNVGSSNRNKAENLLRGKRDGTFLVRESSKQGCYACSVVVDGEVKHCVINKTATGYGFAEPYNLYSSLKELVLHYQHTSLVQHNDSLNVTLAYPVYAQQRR
Chain of PI3K-gamma (P48736 whole entry, species assumed): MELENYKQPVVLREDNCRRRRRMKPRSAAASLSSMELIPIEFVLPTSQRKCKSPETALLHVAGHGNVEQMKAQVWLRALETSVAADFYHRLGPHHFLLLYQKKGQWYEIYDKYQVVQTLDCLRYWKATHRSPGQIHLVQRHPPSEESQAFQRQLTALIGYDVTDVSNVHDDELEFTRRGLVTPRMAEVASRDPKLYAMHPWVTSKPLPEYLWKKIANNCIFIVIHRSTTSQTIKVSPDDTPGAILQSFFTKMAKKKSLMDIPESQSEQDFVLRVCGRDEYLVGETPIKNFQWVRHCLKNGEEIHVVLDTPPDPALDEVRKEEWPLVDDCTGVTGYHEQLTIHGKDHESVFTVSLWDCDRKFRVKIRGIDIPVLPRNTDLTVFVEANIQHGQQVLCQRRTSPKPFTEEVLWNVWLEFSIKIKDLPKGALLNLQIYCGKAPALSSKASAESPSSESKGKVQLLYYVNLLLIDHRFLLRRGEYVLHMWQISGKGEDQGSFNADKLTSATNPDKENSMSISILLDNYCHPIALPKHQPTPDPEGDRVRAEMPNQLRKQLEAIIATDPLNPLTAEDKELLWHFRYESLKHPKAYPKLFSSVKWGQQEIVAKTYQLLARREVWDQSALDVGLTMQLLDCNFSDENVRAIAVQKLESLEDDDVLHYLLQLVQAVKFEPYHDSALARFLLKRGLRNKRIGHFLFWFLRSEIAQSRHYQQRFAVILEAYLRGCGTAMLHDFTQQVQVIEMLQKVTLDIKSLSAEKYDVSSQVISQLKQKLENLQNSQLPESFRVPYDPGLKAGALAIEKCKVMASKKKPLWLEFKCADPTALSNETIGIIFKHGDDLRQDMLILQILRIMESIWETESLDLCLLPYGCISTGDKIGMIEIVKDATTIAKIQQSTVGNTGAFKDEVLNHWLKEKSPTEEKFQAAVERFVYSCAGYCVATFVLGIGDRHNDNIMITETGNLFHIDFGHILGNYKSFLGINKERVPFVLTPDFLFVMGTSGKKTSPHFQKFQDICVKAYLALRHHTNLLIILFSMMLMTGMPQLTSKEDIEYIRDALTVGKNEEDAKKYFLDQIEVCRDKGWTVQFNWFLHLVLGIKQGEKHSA

SMILES | pIC50 (PI3K-alpha) | pIC50 (PI3K-gamma)
COc1cccc2c1c(/C=C1\Oc3cc(O)cc(O)c3C1=O)c(-c1ccccc1)n2C [Compound 497, (2Z)-4,6-dihydroxy-2-[(4-methoxy-1-methyl-2-phenyl-1H-indol-3-yl)methylene]-1-benzofuran-3(2H)-one] | 6.02 | 5.92
Cn1c(-c2ccccc2)c(/C=C2\Oc3cc(O)cc(O)c3C2=O)c2c([N+](=O)[O-])cccc21 [Compound 499, (2Z)-4,6-dihydroxy-2-[(1-methyl-4-nitro-2-phenyl-1H-indol-3-yl)methylene]-1-benzofuran-3(2H)-one] | 6.47 | 5.45
COc1cc(-c2cccnc2)c2c(c1)c(/C=C1\Oc3cc(O)ccc3C1=O)cn2CCCC#N [Compound 502, 4-{3-[(Z)-(6-hydroxy-3-oxo-1-benzofuran-2(3H)-ylidene)methyl]-5-methoxy-7-pyridin-3-yl-1H-indol-1-yl}butanenitrile] | 6.23 | 5.38
COc1cc(-c2cncnc2)c2c(c1)c(/C=C1\Oc3cc(O)cc(O)c3C1=O)cn2CCCC#N [Compound 503, 4-{3-[(Z)-(4,6-dihydroxy-3-oxo-1-benzofuran-2(3H)-ylidene)methyl]-5-methoxy-7-pyrimidin-5-yl-1H-indol-1-yl}butanenitrile] | 6.97 | 6.09
COc1ccc2[nH]cc(C=C3Oc4cc(O)cc(-c5ccccc5)c4C3=O)c2c1 [Compound 504, 6-hydroxy-2-[(5-methoxy-1H-indol-3-yl)methylene]-4-phenyl-1-benzofuran-3(2H)-one] | 6.91 | 6.27
COc1ccc2[nH]cc(C=C3Oc4cc(O)cc(Br)c4C3=O)c2c1 [Compound 505, 4-bromo-6-hydroxy-2-[(5-methoxy-1H-indol-3-yl)methylene]-1-benzofuran-3(2H)-one] | 6.92 | 6.09
CCc1cc(O)cc2c1C(=O)C(=Cc1c[nH]c3ccc(OC)cc13)O2 [Compound 506, 4-ethyl-6-hydroxy-2-[(5-methoxy-1H-indol-3-yl)methylene]-1-benzofuran-3(2H)-one] | 6.88 | 5.82
COc1ccc2[nH]cc(/C=C3\Oc4cc(C#N)ccc4C3=O)c2c1 [Compound 508, (2Z)-2-[(5-methoxy-1H-indol-3-yl)methylene]-3-oxo-2,3-dihydro-1-benzofuran-6-carbonitrile] | 5.07 | < 5.00
COc1ccc2[nH]cc(/C=C3\Oc4cc(-c5nn[nH]n5)ccc4C3=O)c2c1 [Compound 509, (2Z)-2-[(5-methoxy-1H-indol-3-yl)methylene]-6-(2H-tetrazol-5-yl)-1-benzofuran-3(2H)-one] | 6.32 | 5.61
COc1ccc2c(c1)c(/C=C1\Oc3cc(O)cc(O)c3C1=O)cn2CCCC#N [Compound 510, 4-{3-[(Z)-(4,6-dihydroxy-3-oxo-1-benzofuran-2(3H)-ylidene)methyl]-5-methoxy-1Hindol-1-yl}butanenitrile] | 8.10 | 7.25
COc1ccc2c(c1)c(/C=C1\Oc3cc(O)ccc3C1=O)cn2CCCC#N [Compound 511, 4-{3-[(Z)-(6-hydroxy-3-oxo-1-benzofuran-2(3H)-ylidene)methyl]-5-methoxy-1Hindol-1-yl}butanenitrile] | 7.68 | 6.81
CCc1cc(OC)cc2c(/C=C3\Oc4cc(O)cc(O)c4C3=O)cn(CCN3CCN(C)CC3)c12 [Compound 512, (2Z)-2-({7-ethyl-5-methoxy-1-[2-(4-methylpiperazin-1-yl)ethyl]-1H-indol-3-yl}methylene)-4,6-dihydroxy-1-benzofuran-3(2H)-one] | 7.44 | 5.85
COc1ccc2c(c1)c(/C=C1\Oc3ccc(O)cc3C1=O)cn2CCCC#N [Compound 514, 4-{3-[(Z)-(5-hydroxy-3-oxo-1-benzofuran-2(3H)-ylidene)methyl]-5-methoxy-1Hindol-1-yl}butanenitrile] | 5.86 | 5.39
COc1ccc2[nH]cc(/C=C3\Oc4cc(O)cc(CO)c4C3=O)c2c1 [Compound 517, (2Z)-6-hydroxy-4-(hydroxymethyl)-2-[(5-methoxy-1H-indol-3-yl)methylene]-1-benzofuran-3(2H)-one] | 7.08 | 6.15
COc1ccc2c(c1)c(/C=C1\Oc3ccc(O)cc3C1=O)c(C)n2CCN1CCN(C)CC1 [Compound 519] | 6.56 | 5.22
COc1ccc2[nH]cc(/C=C3\Oc4ccc(Br)cc4C3=O)c2c1 [Compound 522, (2Z)-5-bromo-2-[(5-methoxy-1H-indol-3-yl)methylene]-1-benzofuran-3(2H)-one] | < 5.00 | < 5.00
COc1ccc2[nH]cc(/C=C3\Oc4ccc(C#N)cc4C3=O)c2c1 [Compound 523, (2Z)-2-[(5-methoxy-1H-indol-3-yl)methylene]-3-oxo-2,3-dihydro-1-benzofuran-5-carbonitrile] | < 5.00 | < 5.00
COc1ccc2[nH]cc(/C=C3\Oc4ccc(-c5nnn[nH]5)cc4C3=O)c2c1 [Compound 524, (2Z)-2-[(5-methoxy-1H-indol-3-yl)methylene]-5-(1H-tetrazol-5-yl)-1-benzofuran-3(2H)-one] | 4.92 | < 5.00
COc1ccc2c(c1)c(/C=C1\Oc3ccc(NC(C)=O)cc3C1=O)cn2CCCN(C)C [Compound 525, N-[(2Z)-2-({1-[3-(dimethylamino)propyl]-5-methoxy-1H-indol-3-yl}methylene)-3-oxo-2,3-dihydro-1-benzofuran-5-yl]acetamide] | 5.89 | < 5.00
CNC(=O)Nc1cc(O)cc2c1C(=O)/C(=C/c1c[nH]c3ccc(OC)cc13)O2 [Compound 526, 1-{(2Z)-6-hydroxy-2-[(5-methoxy-1H-indol-3-yl)methylene]-3-oxo-2,3-dihydro-1-benzofuran-4-yl}-3-methylurea] | 5.21 | < 5.00
CNC(=O)Nc1ccc2c(c1)C(=O)/C(=C/c1cn(C)c3cccc(-c4ccccc4)c13)O2 [Compound 528, 1-methyl-3-{(2Z)-2-[(1-methyl-4-phenyl-1H-indol-3-yl)methylene]-3-oxo-2,3-dihydro-1-benzofuran-5-yl}urea] | < 5.00 | < 5.00
COc1ccc2[nH]cc(/C=C3\Oc4cc(O)c(O)cc4C3=O)c2c1 [Compound 529, (2Z)-5,6-dihydroxy-2-[(5-methoxy-1H-indol-3-yl)methylene]-1-benzofuran-3(2H)-one] | 6.65 | 5.09

The next lines start with the values.

pIC50 (PI3K-alpha) | pIC50 (PI3K-gamma) | SMILES
7.20 | 6.41 | COc1cc(-c2cncnc2)c2[nH]cc(/C=C3\Oc4cc(O)ccc4C3=O)c2c1 [Compound 498, (2Z)-6-hydroxy-2-[(5-methoxy-7-pyrimidin-5-yl-1H-indol-3-yl)methylene]-1-benzofuran-3(2H)-one]
6.15 | 5.15 | COc1cc(-c2cncnc2)c2c(c1)c(/C=C1\Oc3cc(O)ccc3C1=O)cn2CCCC#N [Compound 501, 4-{3-[(Z)-(6-hydroxy-3-oxo-1-benzofuran-2(3H)-ylidene)methyl]-5-methoxy-7-pyrimidin-5-yl-1H-indol-1-yl}butanenitrile]
7.11 | 5.81 | COc1ccc2c(c1)c(/C=C1\Oc3cc(O)cc(C)c3C1=O)cn2C [Compound 507, (2Z)-6-hydroxy-2-[(5-methoxy-1-methyl-1H-indol-3-yl)methylene]-4-methyl-1-benzofuran-3(2H)-one]
5.81 | < 5.00 | CNC(=O)c1cc(O)cc2c1C(=O)/C(=C/c1c[nH]c3ccc(OC)cc13)O2 [Compound 513, (2Z)-6-hydroxy-2-[(5-methoxy-1H-indol-3-yl)methylene]-N-methyl-3-oxo-2,3-dihydro-1-benzofuran-4-carboxamide]
5.93 | 5.60 | COc1ccc2c(c1)c(/C=C1\Oc3ccc(O)cc3C1=O)cn2CCCN(C)C [Compound 515, (2Z)-2-({1-[3-(dimethylamino)propyl]-5-methoxy-1H-indol-3-yl}methylene)-5-hydroxy-1-benzofuran-3(2H)-one]
6.35 | 5.94 | COc1ccc2[nH]cc(/C=C3\Oc4cc(O)cc(C(N)=O)c4C3=O)c2c1 [Compound 518, (2Z)-6-hydroxy-2-[(5-methoxy-1H-indol-3-yl)methylene]-3-oxo-2,3-dihydro-1-benzofuran-4-carboxamide]
7.14 | 5.40 | CNC(=O)Nc1ccc2c(c1)C(=O)/C(=C/c1cn(CCCN(C)C)c3ccc(OC)cc13)O2 [Compound 520, 1-[(2Z)-2-({1-[3-(dimethylamino)propyl]-5-methoxy-1H-indol-3-yl}methylene)-3-oxo-2,3-dihydro-1-benzofuran-5-yl]-3-methylurea]
5.61 | 5.07 | Cn1c(-c2ccccc2)c(/C=C2\Oc3cc(O)cc(O)c3C2=O)c2c(N)cccc21 [Compound 521, (2Z)-2-[(4-amino-1-methyl-2-phenyl-1H-indol-3-yl)methylene]-4,6-dihydroxy-1-benzofuran-3(2H)-one]
5.52 | 5.42 | Cn1cc(/C=C2\Oc3ccc(Br)cc3C2=O)c2c(-c3ccccc3)cccc21 [Compound 527, (2Z)-5-bromo-2-[(1-methyl-4-phenyl-1H-indol-3-yl)methylene]-1-benzofuran-3(2H)-one]
